The results in this text go back to patent US5677346A, “Treating urinary incontinence using (S)-desethyloxybutynin” (Sepracor, Inc., priority 1995, dated 1997).

Test [1] addresses Ca channel (T + L, verapamil site). The test can be described thus: Binding to calcium channel, verapamil site ([3H]D 888, rat cerebral cortex). The following applies: for percent inhibition of specific radioligand binding, Calcium (verapamil): Table 8, 10^-5 M.
Test [2] addresses T1, human recombinant M2 muscarinic receptor (Homo sapiens, UniProt P08172).
T1 construct: made in house; host or cells: SF9 insect cells infected with baculovirus (membranes)
T1 sequence (P08172 1-466): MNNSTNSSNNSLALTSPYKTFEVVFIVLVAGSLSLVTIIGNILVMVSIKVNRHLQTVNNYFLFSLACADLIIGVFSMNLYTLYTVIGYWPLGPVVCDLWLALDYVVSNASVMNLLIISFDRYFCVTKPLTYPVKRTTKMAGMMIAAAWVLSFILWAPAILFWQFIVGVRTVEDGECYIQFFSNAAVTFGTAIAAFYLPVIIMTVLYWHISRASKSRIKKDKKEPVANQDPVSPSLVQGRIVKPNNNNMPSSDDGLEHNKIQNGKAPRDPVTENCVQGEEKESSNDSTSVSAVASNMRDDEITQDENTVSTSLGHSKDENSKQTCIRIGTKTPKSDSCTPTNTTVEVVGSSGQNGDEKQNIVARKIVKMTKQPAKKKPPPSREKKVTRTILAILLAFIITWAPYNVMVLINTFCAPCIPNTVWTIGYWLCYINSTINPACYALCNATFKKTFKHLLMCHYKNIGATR
As to the kind of experiment: biochemical. It is filed as binding. The following applies: for inhibition at 10 µM: read-out: percent inhibition of specific radioligand binding M2H 10^-5 M; for inhibition at 0.1 µM: read-out: percent inhibition of specific radioligand binding M2H 10^-7 M.

Test [3] has as its target T2, bladder muscarinic receptors (guinea pig bladder smooth muscle strips) (Cavia porcellus, UniProt H0W1Z3).
T2 construct: isolated strips of guinea pig bladder smooth muscle; from tissue; host or cells: urinary bladder strips of male Hartley guinea pigs
As to the kind of experiment: Carbachol-induced contraction of isolated bladder strips (antimuscarinic activity). The following applies: for Slope (Schild regression): Table 9, mean ± SE.

Test [4] has as its system guinea pig bladder smooth muscle strips. The test can be described thus: Potassium-induced contraction of isolated bladder strips (spasmolytic activity).
Test [5] concerns the target T3, human recombinant M4 muscarinic receptor (Homo sapiens, UniProt P08173).
T3 construct: made in house; host or cells: SF9 insect cells infected with baculovirus (membranes)
T3 sequence (P08173 1-479): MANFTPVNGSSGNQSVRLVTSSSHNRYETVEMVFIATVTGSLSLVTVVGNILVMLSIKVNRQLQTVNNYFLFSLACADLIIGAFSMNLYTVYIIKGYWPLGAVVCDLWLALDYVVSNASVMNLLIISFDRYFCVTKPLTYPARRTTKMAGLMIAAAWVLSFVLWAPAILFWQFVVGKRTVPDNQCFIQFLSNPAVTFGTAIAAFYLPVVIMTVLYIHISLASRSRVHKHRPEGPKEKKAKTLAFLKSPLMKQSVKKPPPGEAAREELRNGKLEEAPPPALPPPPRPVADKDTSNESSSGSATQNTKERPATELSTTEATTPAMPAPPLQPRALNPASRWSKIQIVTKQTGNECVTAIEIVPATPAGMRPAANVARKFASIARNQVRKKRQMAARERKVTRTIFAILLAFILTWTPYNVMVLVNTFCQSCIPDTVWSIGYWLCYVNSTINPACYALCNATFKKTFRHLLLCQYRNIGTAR
As to the kind of experiment: biochemical. It is filed as binding. The following applies: for inhibition at 10 µM: read-out: percent inhibition of specific radioligand binding M4H 10^-5 M; for inhibition at 0.1 µM: read-out: percent inhibition of specific radioligand binding M4H 10^-7 M; for inhibition at 0.001 µM: read-out: percent inhibition of specific radioligand binding M4H 10^-9 M.

For test [6], the system named is Ca channel (T + L, diltiazem site). It is filed as binding, rat. The following applies: for percent inhibition of specific radioligand binding, Calcium (diltiazem): Table 8, 10^-5 M.
Test [7] relates to human muscarinic receptor subtypes M1-M4. The test can be described thus: Binding to human muscarinic receptor subtypes M1-M4, overall result.
The subject of test [8] is calcium channel (diltiazem and verapamil sites). The test can be described thus: Binding at calcium channels, overall result. Details: species or system rat. The following applies: 10^-5 M.
The mark [9] stands for this setting: Table 10, 137.7 mM K+, 60 min exposure, n = 3, * significantly different from untreated (< 0.01).

Each structure is given as a SMILES string.

The term IC50 denotes the midpoint of a concentration-inhibition curve. As a reminder, the inhibition is the drop in the measured response relative to a control, in per cent.

T2 sequence (H0W1Z3 1-590): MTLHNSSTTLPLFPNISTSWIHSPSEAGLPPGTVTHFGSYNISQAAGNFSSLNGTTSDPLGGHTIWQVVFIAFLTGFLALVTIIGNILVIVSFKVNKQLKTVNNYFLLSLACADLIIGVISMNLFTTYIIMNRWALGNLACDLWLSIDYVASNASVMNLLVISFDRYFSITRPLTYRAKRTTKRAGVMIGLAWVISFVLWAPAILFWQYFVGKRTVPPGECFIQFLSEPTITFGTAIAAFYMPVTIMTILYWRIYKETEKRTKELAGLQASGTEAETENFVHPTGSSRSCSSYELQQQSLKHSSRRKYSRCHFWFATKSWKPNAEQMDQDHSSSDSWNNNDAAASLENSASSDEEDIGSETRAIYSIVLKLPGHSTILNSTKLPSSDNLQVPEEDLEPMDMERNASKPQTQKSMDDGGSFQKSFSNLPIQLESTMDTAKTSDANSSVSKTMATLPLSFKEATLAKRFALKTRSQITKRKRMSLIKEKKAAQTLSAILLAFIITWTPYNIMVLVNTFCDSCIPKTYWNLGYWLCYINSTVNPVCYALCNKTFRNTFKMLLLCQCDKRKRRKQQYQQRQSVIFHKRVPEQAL

As for `COc1ccc(CCN(C)CCCC(C#N)(c2cc(OC)c(OC)c(OC)c2)C(C)C)cc1OC` (racemic) [D600, reference compound], in test [1] (Table 5, reference compound, 8 concentrations, read-out: Ref. Compound IC50, Calcium (verapamil)), the IC50 is 36.4 nM.

Regarding `CCNCC#CCOC(=O)C(O)(c1ccccc1)C1CCCCC1.Cl` (racemic) [RS-DEO, 4-(Ethylamino)-2-butynyl α-cyclohexyl-α-hydroxybenzeneacetate hydrochloride salt], in test [1], the “percent inhibition of specific radioligand binding, Calcium (verapamil)” value (shortened to “percent inhibition … Calcium (verapamil)”) turned out to be 89%. In test [2], the half-maximal inhibitory concentration (IC50) is 7 nM, the inhibition at 10 µM came to 99% and the inhibition at 0.1 µM was determined as 94%. In addition, in test [3], the Kb was 2.82 nM and the “Slope (Schild regression)” value is reported as 1.35 ± 0.25. Besides, in test [4] (setting [9]), the “Mean % pretreatment ± SE (magnitude of contraction induced by 137.7 mM K+ after exposure to compound / before)” value is listed as 47 ± 8%. Further, in test [5], the inhibition at 10 µM amounted to 95%, the inhibition at 0.1 µM was found to be 99% and the inhibition at 0.001 µM came out at 34%. Besides, in test [6], the “percent inhibition of specific radioligand binding, Calcium (diltiazem)” value (“percent inhibition … Calcium (diltiazem)” below) is recorded as 88%.

In the case of `CCN(CC)CC#CCOC(=O)C(O)(c1ccccc1)C1CCCCC1` (racemic) [RS-OXY, 4-(diethylamino)-2-butynyl α-cyclohexyl-α-hydroxybenzeneacetate, reference compound], the “Mean % pretreatment ± SE (magnitude of contraction induced by 137.7 mM K+ after exposure to compound / before)” value in test [4] (setting [9]) is recorded as 20 ± 1%.

Regarding `CCNCC#CCOC(=O)[C@](O)(c1ccccc1)C1CCCCC1.Cl` [R-DEO, 4-(Ethylamino)-2-butynyl (R)-α-cyclohexyl-α-hydroxybenzeneacetate hydrochloride salt], the “percent inhibition … Calcium (verapamil)” value in test [1] was 96%. Further, in test [2], the concentration for half-maximal inhibition (IC50) was found to be 14.7 nM, the inhibition at 10 µM was 102% and the inhibition at 0.1 µM came out at 97%. Further, the inhibition at 0.001 µM in test [2] (read-out: percent inhibition of specific radioligand binding M2H 10^-9 M) came to 21%. Also, in test [3], the Kb is 0.912 nM and the “Slope (Schild regression)” value amounted to 1.16 ± 0.11. In addition, in test [4] (setting [9]), the “Mean % pretreatment ± SE (magnitude of contraction induced by 137.7 mM K+ after exposure to compound / before)” value amounted to 36 ± 5%. In test [5], the inhibition at 10 µM stood at 99%, the inhibition at 0.1 µM amounted to 100% and the inhibition at 0.001 µM came out at 58%. Moreover, in test [6], the “percent inhibition … Calcium (diltiazem)” value is listed as 86%.

As for `CCN(CC)CC#CCOC(=O)[C@](O)(c1ccccc1)C1CCCCC1` [R-OXY, reference compound], the “Mean % pretreatment ± SE (magnitude of contraction induced by 137.7 mM K+ after exposure to compound / before)” value in test [4] (setting [9]) turned out to be 32 ± 8%.

Turning to `CCNCC#CCOC(=O)[C@@](O)(c1ccccc1)C1CCCCC1.Cl` [S-DEO, 4-(Ethylamino)-2-butynyl (S)-α-cyclohexyl-α-hydroxybenzeneacetate hydrochloride salt], the “percent inhibition … Calcium (verapamil)” value in test [1] is 76%. Also, in test [2], the IC50 was 177 nM and the inhibition at 0.1 µM turned out to be 36%. The “affinity for muscarinic receptor subtypes (in words)” value in test [7] is “less affinity for muscarinic receptor subtypes than either R- or racemic DEO”. In test [3], the Kb was 49 nM and the “Slope (Schild regression)” value is 0.87 ± 0.11. In addition, the “antagonism of bladder muscarinic receptors (in words)” value in test [3] (carbachol-induced contraction) was “less potent antagonists of bladder muscarinic receptors than are R- and racemic OXY and R- and racemic DEO”. For the same molecule, the “calcium entry blocking activity (in words)” value in test [8] was “calcium entry blocking activity similar to that of R- and racemic DEO”. Moreover, in test [5], the inhibition at 10 µM worked out at 99% and the inhibition at 0.1 µM came to 43%. Also, the “percent inhibition … Calcium (diltiazem)” value in test [6] amounted to 72%.

`CCN(CC)CC#CCOC(=O)[C@@](O)(c1ccccc1)C1CCCCC1` [S-OXY, 4-(diethylamino)-2-butynyl α-cyclohexyl-α-hydroxybenzeneacetate]: the “Mean % pretreatment ± SE (magnitude of contraction induced by 137.7 mM K+ after exposure to compound / before)” value in test [4] (guinea pig, bladder strips, 60 min) is 26 ± 9%.

As for `COc1ccc([C@@H]2Sc3ccccc3N(CCN(C)C)C(=O)[C@@H]2OC(C)=O)cc1` [diltiazem, reference compound], the half-inhibitory concentration (IC50) in test [6] (Table 5, reference compound, 8 concentrations, read-out: Ref. Compound IC50, Calcium (diltiazem)) came out at 55.8 nM.
